Columns and labels:
[1] = test system: ECO 190317; assay: MIC, broth microdilution (CLSI), substance alone or ATB combined with compound at 4 or 8 μg/mL; type: cell-based, E. coli; conditions: Escherichia coli; substance alone; ECO 190317; read-out: MIC
Outline: (§1)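 Broth microdilution; ca-MHB; 5·10^5 CFU/mL; 35° C, 16-20 h; compound alone or fixed 4/8 μg/mL with antibiotic series; endpoint = no visible growth.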

[2] = test system: ECO UFR39; assay: as above; type: cell-based, E. coli; conditions: Escherichia coli; substance alone; ECO UFR39; read-out: MIC
Outline: as §1

[3] = test system: KPN BAA-1898; assay: as above; type: cell-based, K. pneumoniae; conditions: Klebsiella pneumoniae, BAA1898; substance alone; KPN BAA-1898; read-out: MIC
Outline: as §1

[4] = test system: KPN UFR42; assay: as above; type: cell-based, K. pneumoniae; conditions: Klebsiella pneumoniae; substance alone; KPN UFR42; read-out: MIC
Outline: as §1

[5] = test system: ECL P99; assay: as above; type: cell-based, E. cloacae; conditions: Enterobacter cloacae; substance alone; ECL P99; read-out: MIC
Outline: as §1

[6] = test system: PAE 105250; assay: as above; type: cell-based, P. aeruginosa; conditions: PAE 105250; for MIC ATB combined with compound: compound @8 μg/ml
Outline: as §1

[7] = test system: PAE UFR48; assay: as above; type: cell-based, P. aeruginosa; conditions: PAE UFR48; for MIC ATB combined with compound: compound @8 μg/ml
Outline: as §1

[8] = test system: PAE UFR90; assay: as above; type: cell-based, P. aeruginosa; conditions: PAE UFR90; for MIC ATB combined with compound: compound @8 μg/ml
Outline: as §1

[9] = test system: SAU 29213; assay: as above; type: cell-based, S. aureus; conditions: for MIC ATB combined with compound: compound @8 μg/ml, SAU 29213
Outline: as §1

[10] = test system: SPN 49619; assay: as above; type: cell-based, S. pneumoniae; conditions: SPN 49619; for MIC ATB combined with compound: compound @8 μg/ml
Outline: as §1

[11] = test system: PAE UFR48; assay: Fractional Inhibitory Concentration Index, checkerboard assay; type: cell-based, P. aeruginosa
Protocol: (§2) Method 2: Determination of the Fractional Inhibitory Concentration Index
(§3) Serial 2-fold dilutions of each antibiotic tested were prepared in ca-MHB and mixed in each well of a 96-well microtiter plate so that each row (and column) contained a fixed amount of one agent and increasing amounts of the second agent. The range of drug concentrations used in the checkerboard analysis was such that the dilution range encompassed the MIC for each drug used in the analysis. Broth microdilution plates were inoculated with each strain (Table 3) to yield 5.10^5 CFU/mL in a 100 μL final volume and incubated for 18 h at 35° C. in ambient air. Assays including Fosfomycin were supplemented with 25 μg/ml of Glucose-6-phosphate. MICs were determined after overnight incubation, and the fractional inhibitory concentration (FIC) index was calculated for each well. The FIC index (FICI) was calculated for each combination according to the equation FICI=FICa+FICb=(MIC of drug A in combination/MIC of drug A alone)+(MIC of drug B in combination/MIC of drug B alone). The FICI was interpreted as follows: synergy, FICI […]; indifference, 0.5<FIC<4; and antagonism, FICI>4. The checkerboard assays were performed in duplicate.

[12] = test system: PAE UFR90; assay: as above; type: cell-based, P. aeruginosa
Protocol: as §2, §3

[13] = test system: KPN UFR68; assay: as above; type: cell-based, K. pneumoniae
Protocol: as §2, §3

[14] = test system: ECL P99; assay: as above; type: cell-based, E. cloacae
Protocol: as §2, §3

[15] = test system: ECO 190317; assay: as above; type: cell-based, E. coli
Protocol: as §2, §3

[16] = Pseudomonas aeruginosa, substance alone, read-out: MIC

SMILES: O=C1N2CC(c3cccnc3)=CC(C2)N1OS(=O)(=O)[O-].[Na+] (stereo not drawn) [Example 8, sodium [3-(3-pyridyl)-7-oxo-1,6-diazabicyclo[3.2.1]oct-3-en-6-yl] sulfate]
- MIC [1]: 4 µg/mL
- MIC [2]: 4 µg/mL
- MIC [3]: 8 µg/mL
- MIC [4]: 16 µg/mL
- MIC [5]: 8 µg/mL
- MIC ATB combined with compound ([6]; ATB ATM): 8 µg/mL
- MIC ATB combined with compound ([6]; ATB FEP): 4 µg/mL
- MIC ATB combined with compound ([6]; ATB FOS): 128 µg/mL
- MIC ATB combined with compound ([6]; ATB MEM): 2 µg/mL
- MIC ATB combined with compound ([6]; ATB PIP): >32 µg/mL
- MIC [6, 16]: > 32 µg/mL
- MIC ATB combined with compound ([7]; ATB ATM): 16 µg/mL
- MIC ATB combined with compound ([7]; ATB FEP): 32 µg/mL
- MIC ATB combined with compound ([7]; ATB FOS): 32 µg/mL
- MIC ATB combined with compound ([7]; ATB MEM): 4 µg/mL
- MIC ATB combined with compound ([7]; ATB PIP): >32 µg/mL
- MIC [7, 16]: > 128 µg/mL
- MIC ATB combined with compound ([8]; ATB ATM): 16 µg/mL
- MIC ATB combined with compound ([8]; ATB FEP): 4 µg/mL
- MIC ATB combined with compound ([8]; ATB FOS): 8 µg/mL
- MIC ATB combined with compound ([8]; ATB MEM): 2 µg/mL
- MIC ATB combined with compound ([8]; ATB PIP): >32 µg/mL
- MIC [8, 16]: > 128 µg/mL
- MIC ATB combined with compound ([9]; ATB ATM): <0.031 µg/mL
- MIC ATB combined with compound ([9]; ATB FEP): <=0.031 μg/mL
- MIC ATB combined with compound ([9]; ATB FOS): 0.25 µg/mL
- MIC ATB combined with compound ([9]; ATB MEM): <0.031 µg/mL
- MIC ATB combined with compound ([9]; ATB PIP): <0.031 µg/mL
- MIC ([9]; Staphylococcus aureus, substance alone, SAU 29213 (MSSA 29213), read-out: MIC): 8 µg/mL
- MIC ATB combined with compound ([10]; ATB ATM): <=0.031 μg/mL
- MIC ATB combined with compound ([10]; ATB FEP): <0.031 µg/mL
- MIC ATB combined with compound ([10]; ATB FOS): <0.125 µg/mL
- MIC ATB combined with compound ([10]; ATB MEM): <0.031 µg/mL
- MIC ATB combined with compound ([10]; ATB PIP): <0.031 µg/mL
- MIC ([10]; Streptococcus pneumoniae, substance alone, read-out: MIC): 4 µg/mL
- FIC index min ([11]; compound +ATM): ≤0.13
- FIC index min ([11]; compound +FEP): ≤0.5
- FIC index min ([11]; compound +FOS): ≤0.25
- FIC index min ([11]; compound +MEM): 1.0
- FIC index min ([11]; compound +PIP): ≤0.31
- FIC index min ([12]; compound +ATM): ≤0.75
- FIC index min ([12]; compound +FEP): ≤0.25
- FIC index min ([12]; compound +FOS): ≤0.62
- FIC index min ([12]; compound +MEM): ≤0.56
- FIC index min ([12]; compound +PIP): ≤0.25
- FIC index min ([13]; compound +ATM): ≤0.07
- FIC index min ([13]; compound +FEP): ≤0.08
- FIC index min ([13]; compound +FOS): 0.75
- FIC index min ([13]; compound +MEM): ≤0.07
- FIC index min ([13]; compound +PIP): ≤0.07
- FIC index min ([14]; compound +ATM): 0.53
- FIC index min ([14]; compound +FEP): 0.25
- FIC index min ([14]; compound +FOS): ≤0.28
- FIC index min ([14]; compound +MEM): 0.75
- FIC index min ([14]; compound +PIP): 0.16
- FIC index min ([15]; compound +ATM): 0.13
- FIC index min ([15]; compound +FEP): 0.13
- FIC index min ([15]; compound +FOS): 0.63
- FIC index min ([15]; compound +MEM): 0.57
- FIC index min ([15]; compound +PIP): ≤0.14
